Results taken from PMC4251066, “Polyyne Hybrid Compounds from Notopterygium incisum with Peroxisome Proliferator-Activated Receptor Gamma Agonistic Effects” (Journal of Natural Products, 2014).

How the values were obtained:
human PPARγ = biological target: T1, human PPARγ (Homo sapiens, UniProt P37231); assay: PPARγ luciferase reporter gene transactivation in HEK-293 cells; settings: PPARγ-driven luciferase reporter assay, 18 h
T1 sequence (P37231 1-477 isoform P37231-2): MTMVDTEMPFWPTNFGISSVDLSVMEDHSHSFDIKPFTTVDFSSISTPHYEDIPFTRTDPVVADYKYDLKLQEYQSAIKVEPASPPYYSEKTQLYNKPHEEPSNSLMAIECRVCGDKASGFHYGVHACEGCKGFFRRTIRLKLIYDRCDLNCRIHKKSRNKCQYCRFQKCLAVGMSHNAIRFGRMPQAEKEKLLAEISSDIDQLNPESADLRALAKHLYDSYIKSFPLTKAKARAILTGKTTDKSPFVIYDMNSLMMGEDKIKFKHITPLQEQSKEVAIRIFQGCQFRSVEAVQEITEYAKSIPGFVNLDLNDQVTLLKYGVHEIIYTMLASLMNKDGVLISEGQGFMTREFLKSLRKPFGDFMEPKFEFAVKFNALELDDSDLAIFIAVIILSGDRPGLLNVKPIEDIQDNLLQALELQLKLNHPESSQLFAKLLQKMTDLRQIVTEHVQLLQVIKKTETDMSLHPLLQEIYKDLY
Protocol: For evaluation of PPARγ activation the test compounds were first dissolved in DMSO, divided into aliquots, and frozen at −20 °C until used. In all experiments, DMSO was applied as solvent control, and the final concentration of DMSO was always kept at ≤0.1%. The PPAR luciferase reporter plasmid (tk-PPREx3-luc) was a kind gift from Prof. Ronald M. Evans (Howard Hughes Medical Institute, La Jolla, CA, USA), the plasmid encoding enhanced green fluorescent protein (pEGFP-N1) was supplied by Clontech (Mountain View, CA, USA), and the plasmid encoding human PPARγ (pSG5-PL-hPPAR-γ1) was kindly supplied by Prof. Walter Wahli and Prof. Beatrice Desvergne (Center for Integrative Genomics, University of Lausanne, Switzerland).
The PPARγ luciferase reporter gene assay was performed as previously described.[27] Briefly, HEK-293 cells (ATCC, Manassas, VA, USA) were grown in DMEM with 2 mM glutamine, 10% FBS, 100 U/mL benzylpenicillin, and 100 μg/mL streptomycin. Cells were grown in 10 cm dishes (6 × 10^6 cells/dish) for 18 h and then transfected by the calcium phosphate precipitation method with 4 μg of plasmid encoding human PPARγ (pSG5-PL-hPPAR-γ1), 4 μg of reporter plasmid (tk-PPREx3-luc), and 2 μg of pEGFP-N1 as control for internal normalization.[28] After 6 h, the cells were transferred to 96-well plates (5 × 10^4 cells/well) in DMEM without phenol red supplemented with charcoal-stripped FBS, glutamine, and antibiotics. The cells were treated with different concentrations of the indicated compounds and incubated for 18 h. Cells were then lysed, and the luminescence of the firefly luciferase and the fluorescence of EGFP were quantified with a GeniosPro microplate reader (Tecan, Grödig, Austria). The luminescence was finally normalized to the EGFP-derived fluorescence from each well to account for differences in transfection efficiency or cell number.
Nonlinear regression (with sigmoidal dose response) was used to calculate the EC50 values and maximal fold activation.

[1] = tested on: NO production in LPS/IFNγ-stimulated RAW 264.7 macrophages; assay: Inhibition of NO production in stimulated RAW 264.7 macrophages (Griess assay); assay type: cell-based; settings: Mus musculus, RAW264.7, 16 h incubation
Protocol: RAW 264.7 macrophages were stimulated with lipopolysaccharides (LPS) and interferon-γ (IFNγ) for induction of iNOS gene expression. The effects on NO production were determined by photometric quantification of nitrite accumulation in cell culture supernatants using the Griess assay compared with a sodium nitrite standard curve after 16 h of incubation with the respective sample as described by Baer et al. with slight modifications.[29],[30] Activity is referred to nitrite accumulation of cells treated with LPS/IFN-γ/DMSO (final concentration of 0.1% DMSO serves as solvent control). Test compounds were first dissolved in DMSO and then diluted with PBS to obtain respective concentrations. L-NMMA (N-monomethyl-L-arginine), a known nonselective inhibitor of all NOS isoforms, was used as a positive control. IC50 determination was performed in eight concentrations, each in at least three independent experiments, every time in duplicate.
IC50 values for effects on NO production were calculated with the SigmaPlot program package employing the four-parameter logistic regression model. Statistical differences were evaluated using one-way ANOVA. Differences with a p value < 0.05 were considered significant.

[2] = Stability on exposure to heat or sunlight (observed color change); assay type: physicochemical; settings: elevated temperatures (45 °C) or direct sunlight at ambient temperature for an extended time; visible color change

| Structure (SMILES) | EC50 (human PPARγ) [nM] | maximal fold activation (human PPARγ) | IC50 [1] [nM] | stability [2] |
| --- | --- | --- | --- | --- |
| C=C[C@H](C#CC#C[C@@H](O)/C=C\CCCCCCC)O[C@]1(C)CCC[C@]2(C)CC[C@@H](C(C)(C)O)C[C@H]21 [compound 1, Notoether A] | 1900 | 1.6 |  |  |
| C=C[C@@H](O)C#CC#C[C@H](/C=C\CCCCCCC)OC(=O)/C=C/c1ccc(O)c(OC)c1 [compound 9, Notoincisol A] | 2300 |  | 14600 ± 700 | unstable |
| C=C[C@H]1OCc2cc3cc(OC)c(O)cc3c(C#C[C@@H](O)/C=C\CCCCCCC)c21 [compound 10, Notoincisol B] | 1700 | 2.3 |  |  |
| C=C[C@H](C#CC#C[C@@H](O)/C=C\CCCCCCC)O[C@]1(C)CC[C@@H](O)[C@]2(C)CC[C@@H](C(C)C)[C@@H](O)[C@H]21 [compound 3, Notoether C] | 2000 | 1.6 |  |  |
| C=C[C@@H](O)C#CC#C[C@H](/C=C\CCCCCCC)O[C@]1(C)CCC[C@]2(C)CC[C@@H](C(C)(C)O)C[C@H]21 [compound 2, Notoether B] | 1700 | 2.0 |  |  |
